In one experiment the target is T1, PDE4B1 (Homo sapiens, UniProt Q07343).
T1 construct: purchased BPS Bioscience Inc
The experiment is described as follows: PDE isoform selectivity panel: PDE4B1. Format: biochemical.

A further experiment concerns the target T2, PDE4D2 (Homo sapiens, UniProt Q08499).
T2 construct: purchased BPS Bioscience Inc
As to the kind of experiment: PDE isoform selectivity panel: PDE4D2. Format: biochemical.

The test system of the next experiment is PDE4. The settings on record: read-out: EC50 (concentration at 50% activity); FIG. 3; four separate experiments; normalized to 10 μM 1 response.
The target in a further experiment is PDE1B (Homo sapiens, UniProt Q01064). The experiment is described as follows: PDE isoform selectivity panel: PDE1B. It is filed as biochemical.
The target in the next experiment is T3, PDE5A1 (Homo sapiens, UniProt O76074).
T3 construct: purchased BPS Bioscience Inc
The experiment is described as follows: PDE isoform selectivity panel: PDE5A1. Format: biochemical.

The target of a further experiment is T4, PDE10A1 (Homo sapiens, UniProt Q9Y233).
T4 construct: purchased BPS Bioscience Inc
The experiment is described as follows: PDE isoform selectivity panel: PDE10A1. Format: biochemical.

The target in the next experiment is T5, PDE3B (Homo sapiens, UniProt Q13370).
T5 construct: purchased BPS Bioscience Inc
The experiment is described as follows: PDE isoform selectivity panel: PDE3B. It is filed as biochemical.

For another experiment, the target named is PDE1C (Homo sapiens, UniProt Q14123). As to the kind of experiment: PDE isoform selectivity panel: PDE1C. Format: biochemical.
A further experiment has as its target T6, PDE9A2 (Homo sapiens, UniProt O76083).
T6 construct: purchased BPS Bioscience Inc
The experiment is described as follows: PDE isoform selectivity panel: PDE9A2. It is filed as biochemical. Conditions: 10 μM compound; for inhibition at 10 µM: read-out: % Inhibition of the Enzyme Activity at 10 μM.

The next experiment addresses T7, PDE3A (Homo sapiens, UniProt Q14432).
T7 construct: purchased BPS Bioscience Inc
As to the kind of experiment: PDE isoform selectivity panel: PDE3A. It is filed as biochemical. The settings on record: 10 μM compound, read-out: % Inhibition of the Enzyme Activity at 10 μM.

Experiment [1] concerns the target T8, PDE4A1A (Homo sapiens, UniProt P27815). The experiment is described as follows: IMAP fluorescence polarization assay with purified PDE4A1A. Set-up: purchased BPS Bioscience. It is filed as biochemical. The settings on record: Table 3; three separate experiments (SD provided); read-out: PDE4A IC50. On the technique in general: Polarisation of emitted light reports the rotation of a fluorescent probe.
Method: Briefly, two microliters of PDE4A1A (0.05 ng/μl PDE4A1A, 10 mM Tris pH 7.2, 0.1% BSA, 10 mM MgCl2, 1 mM DTT, and 0.05% NaN3, final concentration) was dispensed into wells of 1536-well black/solid bottom assay plates (Greiner Bio-One North. America, NC) using a Flying Reagent Dispenser (Aurora Discovery, CA). The plates were centrifuged at 1000 rpm for 30 seconds and then 23 nanoliters of test compound was transferred to the assay plate using a Kalypsys pin tool. After incubation at room temperature for 5 min, 2 μL/well of cAMP (100 nM, final concentration) was dispensed for a final assay volume of 4 μL/well. The plates were centrifuged at 1000 rpm for 30 seconds, incubated for 40 minutes at room temperature, and then 4 microliters of IMAP binding reagent were added to the wells.

The next experiment concerns the target PDE7A (Homo sapiens, UniProt Q13946). The experiment is described as follows: PDE isoform selectivity panel: PDE7A. Format: biochemical.
For the next experiment, the target named is T9, PDE4C1 (Homo sapiens, UniProt Q08493).
T9 construct: purchased BPS Bioscience Inc
The experiment is described as follows: PDE isoform selectivity panel: PDE4C1. It is filed as biochemical.

Experiment [2] deals with PKA reporter Reg-F[1]:Cat-F[2] in β2AR-HEK293 cells. As to the kind of experiment: Protein-fragment complementation (Rluc PCA PKA reporter) cell-based assay. The settings on record: FIG. 4B; 100 μM and 10 μM, 30 min.
Method: Cell culture: Stable β2AR-HEK293 cells were plated into 96-well white walled microliter plates (Corning) and grown in DMEM (Invitrogen) supplemented with 10% fetal bovine serum. Transient transfections of plasmids harboring the Rluc PCA PKA reporter were performed with FuGENE-6 reagent (Roche).
Rluc activities were monitored for the first 10 seconds after addition of the substrate benzyl-coelenterazine (5 μM, Nanolight).
Protein-fragment Complementation (PCA) cell-based assay. […] To further examine the efficacy of the PDE inhibitors described herein, a reporter enzyme was used—Renilla reniformis luciferase (Rluc), where the N- and C-terminal fragments of Rluc are fused to the catalytic subunits (Cat) and inhibiting regulatory subunits (Reg) of protein kinase A (PKA).
For another experiment, the target named is T10, PDE4B2 (Homo sapiens, UniProt Q07343).
T10 construct: purchased BPS Bioscience Inc
As to the kind of experiment: PDE isoform selectivity panel: PDE4B2. It is filed as biochemical.

The next experiment deals with PDE2A (Homo sapiens, UniProt O00408). As to the kind of experiment: PDE isoform selectivity panel: PDE2A. Format: biochemical.
Another experiment concerns the target T11, PDE1A (Homo sapiens, UniProt P54750).
T11 construct: purchased BPS Bioscience Inc
As to the kind of experiment: PDE isoform selectivity panel: PDE1A. It is filed as biochemical. Conditions: 10 μM compound.

Another experiment addresses PDE11A4 (Homo sapiens, UniProt Q9HCR9). The experiment is described as follows: PDE isoform selectivity panel: PDE11A4. Format: biochemical. The settings on record: 10 μM compound; for inhibition at 10 µM: read-out: % Inhibition of the Enzyme Activity at 10 μM.
The target of the next experiment is PDE7B (Homo sapiens, UniProt Q9NP56). As to the kind of experiment: PDE isoform selectivity panel: PDE7B. It is filed as biochemical.
The target in another experiment is PDE8A1 (Homo sapiens, UniProt O60658). As to the kind of experiment: PDE isoform selectivity panel: PDE8A1. Format: biochemical. Conditions: 10 μM compound.
In experiment [3] the target is T8, PDE4A1A.
Method: (§1) The potency of these compounds was assessed versus 20 different phosphodiesters (PDEs) using methods described in the foregoing Examples.
[4] abbreviates: read-out: % Inhibition of the Enzyme Activity at 10 μM.

“Also recorded” adds a separate entry of the source. Where two headings read alike, the source gives them in different places.

For orientation: IC50 means the point on the concentration scale where inhibition reaches its midpoint. In general, inhibition refers to how much of the control response was suppressed.

T8 sequence (P27815 1-647 isoform P27815-4): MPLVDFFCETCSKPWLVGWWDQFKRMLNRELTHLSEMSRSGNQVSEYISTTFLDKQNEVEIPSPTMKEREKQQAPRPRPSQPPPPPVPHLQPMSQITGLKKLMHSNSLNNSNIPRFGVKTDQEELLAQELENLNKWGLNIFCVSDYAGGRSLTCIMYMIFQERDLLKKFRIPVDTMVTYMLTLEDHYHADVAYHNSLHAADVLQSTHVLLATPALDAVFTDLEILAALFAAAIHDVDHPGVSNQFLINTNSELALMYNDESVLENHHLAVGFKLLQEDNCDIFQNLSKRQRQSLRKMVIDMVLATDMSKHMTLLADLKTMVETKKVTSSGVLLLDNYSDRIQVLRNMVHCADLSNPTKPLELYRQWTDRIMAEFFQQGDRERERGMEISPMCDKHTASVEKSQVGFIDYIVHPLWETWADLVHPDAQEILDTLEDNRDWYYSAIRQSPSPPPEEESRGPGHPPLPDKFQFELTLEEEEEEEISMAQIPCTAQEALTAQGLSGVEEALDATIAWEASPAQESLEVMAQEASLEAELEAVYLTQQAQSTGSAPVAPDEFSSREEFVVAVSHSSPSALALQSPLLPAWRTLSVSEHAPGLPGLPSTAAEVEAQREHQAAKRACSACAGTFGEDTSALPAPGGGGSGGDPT
T6 sequence (O76083 1-533 isoform O76083-2): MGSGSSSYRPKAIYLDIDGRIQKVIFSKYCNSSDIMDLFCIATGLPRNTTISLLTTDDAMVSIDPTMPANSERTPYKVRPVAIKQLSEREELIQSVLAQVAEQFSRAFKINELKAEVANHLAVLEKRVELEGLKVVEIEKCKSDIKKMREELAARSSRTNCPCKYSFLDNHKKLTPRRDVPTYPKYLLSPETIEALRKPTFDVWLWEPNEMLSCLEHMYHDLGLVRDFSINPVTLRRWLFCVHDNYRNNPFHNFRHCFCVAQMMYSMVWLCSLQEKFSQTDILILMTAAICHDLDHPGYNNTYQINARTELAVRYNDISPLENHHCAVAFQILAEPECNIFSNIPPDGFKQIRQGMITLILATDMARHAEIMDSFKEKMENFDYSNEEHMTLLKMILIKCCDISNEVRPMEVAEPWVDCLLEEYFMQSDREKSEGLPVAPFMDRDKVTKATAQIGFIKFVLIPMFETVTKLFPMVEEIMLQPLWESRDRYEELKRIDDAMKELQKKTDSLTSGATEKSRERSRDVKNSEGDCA
Sequence of PDE11A4 (Q9HCR9 whole entry, canonical isoform): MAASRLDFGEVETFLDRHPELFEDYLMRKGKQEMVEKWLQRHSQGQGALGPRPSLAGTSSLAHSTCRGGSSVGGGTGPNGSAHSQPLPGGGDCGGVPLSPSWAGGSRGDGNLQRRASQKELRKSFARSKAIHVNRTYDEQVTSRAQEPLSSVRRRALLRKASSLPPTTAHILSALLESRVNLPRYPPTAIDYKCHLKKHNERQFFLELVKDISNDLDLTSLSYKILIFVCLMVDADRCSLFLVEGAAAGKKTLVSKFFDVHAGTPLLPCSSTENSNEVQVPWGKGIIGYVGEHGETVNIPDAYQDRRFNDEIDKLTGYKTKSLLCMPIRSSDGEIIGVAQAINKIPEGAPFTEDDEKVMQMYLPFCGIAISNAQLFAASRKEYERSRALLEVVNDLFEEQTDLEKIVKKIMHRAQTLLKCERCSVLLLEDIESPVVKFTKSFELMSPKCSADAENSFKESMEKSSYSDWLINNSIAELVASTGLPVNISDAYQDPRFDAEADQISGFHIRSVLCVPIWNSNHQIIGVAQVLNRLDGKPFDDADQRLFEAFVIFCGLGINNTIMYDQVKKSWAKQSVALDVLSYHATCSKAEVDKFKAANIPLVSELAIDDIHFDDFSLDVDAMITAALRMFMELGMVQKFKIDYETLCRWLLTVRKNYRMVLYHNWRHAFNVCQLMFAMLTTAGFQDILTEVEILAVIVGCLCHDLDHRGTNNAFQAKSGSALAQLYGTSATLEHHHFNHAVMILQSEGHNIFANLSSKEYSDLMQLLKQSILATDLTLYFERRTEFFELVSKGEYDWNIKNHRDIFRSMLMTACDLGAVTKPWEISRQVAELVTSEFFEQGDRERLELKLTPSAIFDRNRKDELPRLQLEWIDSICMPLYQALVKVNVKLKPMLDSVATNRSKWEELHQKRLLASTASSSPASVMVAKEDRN
T5 sequence (Q13370 whole entry): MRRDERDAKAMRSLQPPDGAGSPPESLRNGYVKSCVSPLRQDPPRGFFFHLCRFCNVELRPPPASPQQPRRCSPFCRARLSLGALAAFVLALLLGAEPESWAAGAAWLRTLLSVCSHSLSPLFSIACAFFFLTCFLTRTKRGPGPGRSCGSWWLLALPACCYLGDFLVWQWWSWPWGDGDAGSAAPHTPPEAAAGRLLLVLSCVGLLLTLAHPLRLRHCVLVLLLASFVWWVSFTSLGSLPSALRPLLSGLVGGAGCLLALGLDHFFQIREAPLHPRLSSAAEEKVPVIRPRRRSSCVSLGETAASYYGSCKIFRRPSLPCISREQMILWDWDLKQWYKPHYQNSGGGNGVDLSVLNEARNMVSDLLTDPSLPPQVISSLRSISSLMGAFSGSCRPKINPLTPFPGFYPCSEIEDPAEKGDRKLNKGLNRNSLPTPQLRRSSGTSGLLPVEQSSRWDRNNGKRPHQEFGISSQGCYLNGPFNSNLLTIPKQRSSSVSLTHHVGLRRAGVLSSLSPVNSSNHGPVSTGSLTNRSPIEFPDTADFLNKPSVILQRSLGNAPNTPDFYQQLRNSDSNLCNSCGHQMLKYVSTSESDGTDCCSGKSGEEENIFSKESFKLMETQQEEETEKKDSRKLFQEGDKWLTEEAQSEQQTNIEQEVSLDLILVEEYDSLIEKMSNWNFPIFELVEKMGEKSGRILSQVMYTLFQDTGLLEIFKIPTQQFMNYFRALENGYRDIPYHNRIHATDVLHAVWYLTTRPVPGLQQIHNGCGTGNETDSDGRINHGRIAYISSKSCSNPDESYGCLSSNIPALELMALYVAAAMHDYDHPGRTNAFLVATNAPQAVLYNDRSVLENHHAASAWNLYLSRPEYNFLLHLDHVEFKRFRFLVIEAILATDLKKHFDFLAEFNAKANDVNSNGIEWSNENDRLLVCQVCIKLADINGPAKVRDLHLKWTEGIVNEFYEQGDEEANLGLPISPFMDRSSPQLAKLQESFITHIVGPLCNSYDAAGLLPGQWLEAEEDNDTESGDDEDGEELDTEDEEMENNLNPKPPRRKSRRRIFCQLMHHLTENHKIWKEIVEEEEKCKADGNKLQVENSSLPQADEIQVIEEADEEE
T7 sequence (Q14432 whole entry): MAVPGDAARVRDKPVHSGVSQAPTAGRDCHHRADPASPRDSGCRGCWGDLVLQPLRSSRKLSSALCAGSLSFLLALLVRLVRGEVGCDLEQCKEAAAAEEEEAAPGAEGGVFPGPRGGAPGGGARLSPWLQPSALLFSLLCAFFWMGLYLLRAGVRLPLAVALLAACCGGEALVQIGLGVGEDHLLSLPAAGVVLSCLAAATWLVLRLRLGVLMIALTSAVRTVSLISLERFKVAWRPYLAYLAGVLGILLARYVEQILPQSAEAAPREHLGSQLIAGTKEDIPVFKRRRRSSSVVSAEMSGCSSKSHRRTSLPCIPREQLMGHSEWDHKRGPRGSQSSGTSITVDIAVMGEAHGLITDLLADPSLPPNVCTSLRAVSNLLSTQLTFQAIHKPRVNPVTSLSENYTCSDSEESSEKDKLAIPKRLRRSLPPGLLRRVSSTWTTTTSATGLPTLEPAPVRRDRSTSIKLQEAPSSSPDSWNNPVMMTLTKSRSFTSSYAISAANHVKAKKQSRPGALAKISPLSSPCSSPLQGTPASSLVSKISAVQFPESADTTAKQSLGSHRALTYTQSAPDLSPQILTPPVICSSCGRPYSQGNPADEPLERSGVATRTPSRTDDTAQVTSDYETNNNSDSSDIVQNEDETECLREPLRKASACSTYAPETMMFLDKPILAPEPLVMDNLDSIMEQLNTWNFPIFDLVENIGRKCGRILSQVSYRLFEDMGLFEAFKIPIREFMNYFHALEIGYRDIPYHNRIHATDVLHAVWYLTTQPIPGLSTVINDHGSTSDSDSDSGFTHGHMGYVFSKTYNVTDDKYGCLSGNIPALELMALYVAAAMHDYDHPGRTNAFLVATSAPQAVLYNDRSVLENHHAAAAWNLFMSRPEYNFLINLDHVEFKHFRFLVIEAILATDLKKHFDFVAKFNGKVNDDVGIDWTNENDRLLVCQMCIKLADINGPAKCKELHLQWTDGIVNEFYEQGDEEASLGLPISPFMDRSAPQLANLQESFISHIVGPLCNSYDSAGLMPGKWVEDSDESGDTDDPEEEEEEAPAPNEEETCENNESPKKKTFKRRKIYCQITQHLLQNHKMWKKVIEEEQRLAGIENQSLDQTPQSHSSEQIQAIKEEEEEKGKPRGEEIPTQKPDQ
T2 sequence (Q08499 303-809 limits assumed): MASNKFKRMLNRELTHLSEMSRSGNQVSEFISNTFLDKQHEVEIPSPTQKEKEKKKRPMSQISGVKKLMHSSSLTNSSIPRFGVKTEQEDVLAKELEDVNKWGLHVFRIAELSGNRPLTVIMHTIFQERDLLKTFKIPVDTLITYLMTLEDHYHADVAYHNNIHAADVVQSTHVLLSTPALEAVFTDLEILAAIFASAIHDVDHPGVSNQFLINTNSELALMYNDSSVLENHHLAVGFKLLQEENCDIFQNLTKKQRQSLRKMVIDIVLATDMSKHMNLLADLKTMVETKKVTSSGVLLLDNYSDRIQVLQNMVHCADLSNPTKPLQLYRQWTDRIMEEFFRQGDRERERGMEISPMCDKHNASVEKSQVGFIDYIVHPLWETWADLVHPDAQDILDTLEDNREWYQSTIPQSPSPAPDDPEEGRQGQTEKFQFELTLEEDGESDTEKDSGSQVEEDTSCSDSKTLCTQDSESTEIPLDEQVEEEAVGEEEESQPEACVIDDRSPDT
Method for PDE2A: as §1
Method for PDE3A: as §1
Method for PDE3B: as §1
Method for PDE4B1: as §1
Method for PDE7A: as §1
Method for PDE7B: as §1
Method for PDE8A1: as §1

With `COc1ccc(OC)c(-c2nnc3ccc(-c4ccc(OC)c(O[C@@H]5CCOC5)c4)nn23)c1` [Compound 18, (R)-(−)-3-(2,5-dimethoxyphenyl)-6-(4-methoxy-3-(tetrahydrofuran-3-yloxy)phenyl)-[1,2,4]-triazolo[4,3-b]pyridazine], the half-inhibitory concentration (IC50) against PDE4B1 amounted to 4.1 nM; against PDE4D2 it was 2.1 nM; against PDE10A1, 388 nM; on PDE3B, 2300 nM; on PDE4A1A [1], 1.5 ± 0.7 nM; on PDE4C1, 106 nM. In addition, on PDE4B2, the half-maximal inhibitory concentration (IC50) turned out to be 2.9 nM. Further, the EC50 with PDE4 was found to be 34.2 nM. Also, the “% Inhibition of the Enzyme Activity at 10 μM” value (shortened to “% Inhibition”) on PDE1B (PDE1B, 10 μM compound) was 56%; on PDE9A2, “inactive”; on PDE1A it was 32%; at PDE11A4, “inactive”; on PDE8A1 it was “inactive”. For the same compound, the inhibition at 10 µM on PDE5A1 (setting [4]) was 51%; on PDE1C (setting [4]), 74%; at PDE9A2, less than 26%; at PDE3A, 54%; on PDE7A (setting [4]), 59%; on PDE2A (setting [4]), 54%. Moreover, the inhibition at 10 µM is less than 26% on PDE11A4 and 35% on PDE7B (setting [4]). The “effect on luminescence signal (PKA activation)” value in experiment [2] is on record as “marked loss of luminescence; also recorded: dose-dependent inhibition”.
As to `COc1ccc(OC)c(-c2nnc3n2N=C(c2ccc(OC)c(O[C@@H]4CCOC4)c2)CS3)c1` [Compound 10, (R)-3-(2,5-dimethoxyphenyl)-6-(4-methoxy-3-(tetrahydrofuran-3-yloxy)phenyl)-7H-[1,2,4]-triazolo[3,4-b][1,3,4]thiadiazine], the half-maximal inhibitory concentration (IC50) against PDE4B1 was 2.3 nM; against PDE4D2 it was 1.9 nM; against PDE10A1 it was 632 nM; at PDE3B, 4600 nM; against PDE4A1A [3] it was “Sub-nanomolar potencies”; on PDE4A1A [1] it was 3 nM. The IC50 at PDE4C1 stood at 46 nM; on PDE4B2, 1.6 nM. Moreover, the EC50 in the experiment with PDE4 was found to be 2.3 nM. The inhibition at 10 µM on PDE1B (setting [4]) was 52%; at PDE9A2, less than 26%; on PDE3A, 56%; on PDE11A4 it was less than 26%. Moreover, the “% Inhibition” value is 58% at PDE5A1 (PDE5A1, 10 μM compound); 49% at PDE1C (PDE1C, 10 μM compound); “inactive” at PDE9A2; 48% on PDE7A (PDE7A, 10 μM compound); 68% at PDE2A (PDE2A, 10 μM compound); 36% at PDE1A. Besides, the “% Inhibition” value at PDE11A4 was “inactive”; at PDE7B (PDE7B, 10 μM compound), 43%; at PDE8A1, “inactive”. The “effect on luminescence signal (PKA activation)” value in [2] is on record as “marked loss of luminescence; also recorded: dose-dependent inhibition”.

(Values after patent US20110112079A1, “PHOSPHODIESTERASE INHIBITORS” (priority 2008, published 2011).)
